Assay results from patent publication US11845752B2, “Substituted imidazo[1,5-a]pyrazines for the treatment of hepatitis B” (ALIGOS THERAPEUTICS, INC., priority 2020, dated 2023).

Test system: HBV
Assay: HBV-DNA antiviral assay using HepG2.117 cells (intracellular HBV DNA by qPCR)
Assay type: cell-based, HBV genotype D
Conditions: Hepatitis B virus, HepG2.117, 72 h, HBV DNA inhibition, 3 days incubation, read-out: EC50
Experimental: The following assay procedure describes the HBV antiviral assay, using HepG2.117 cells, which carry a stably integrated genotype D HBV genome under the control of a Tet-off promoter, and intracellular HBV DNA quantification as endpoint. Cell viability is assessed in parallel by measuring the intracellular ATP content using ATPlite (Perkin Elmer).
On day 0, HepG2.117 cells (which are maintained in routine cell culture with doxycycline present in the medium at a final concentration of 1 μg/mL) were seeded in 96-well plates (white with clear bottom) at a density of 2.0×10^4 cells/well (0.1 mL/well) in medium without doxycycline to induce pgRNA transcription and subsequent formation of HBV particles. The cells were incubated at 37° C. and 5% CO2.
On day 1, medium was removed from each well, the test articles were diluted in culture medium without doxcycyline and 100 μL was added to cell culture wells (9 concentrations, 4-fold dilution). For each plate, 6 untreated (merely DMSO) wells were included. The final concentration of DMSO in the culture medium was 2%. Each plate was prepared in duplicate (one for HBV DNA extraction, one for ATPlite measurement). The cells were incubated at 37° C. and 5% CO2 for 3 days.
On day 4, cell viability was assessed using ATPlite and cell lysates were prepared for HBV DNA extraction and subsequent quantification by qPCR.
Medium was removed from each well and 100 μL of 0.33% NP-40 in H2O was added to each well. Plates were sealed, incubated at 4° C. for 5 mins, vortexed extensively and centrifuged briefly. Next, 35 μL of lysate was added to 65 μL QuickExtract DNA Extraction Solution (Epicentre) in a PCR plate for each well. PCR plate was incubated at 65° C. for 6 mins, 98° C. for 2 mins and finally cooled to 4° C. HBV DNA was then quantified by qPCR with HBV-specific primers and probes as specified in Table 1 using the Bio-Rad SSOAdvanced Universal Probes Supermix on a CFX96 machine (Bio-Rad). The PCR cycle program consisted of 95° C. for 3 mins, followed by 40 cycles at 95° C. for 10 sec and 60° C. for 30 sec.
A DNA standard was prepared by dilution of an IDT gBlock corresponding to the amplicon with concentrations ranging from 10^2 to 10^8 copies/input (i.e. per 4 μL) and used to generate a standard curve by plotting Cq values vs. HBV DNA standard concentration. The quantity of HBV DNA in each sample was determined by interpolating from the standard curve.
Cell viability was calculated as follows: % Cell viability=(luminescence value of test sample)/(average luminescence value of 2% DMSO control)×100%. HBV DNA inhibition was calculated as follows: 100−(HBV DNA copy number of test sample)/(average HBV DNA copy number of 2% DMSO control)×100%. No normalization to entecavir was required due to the excellent dynamic window of this assay. The CC50, EC50 and EC90 values were determined by dose-response curves fitted using non-linear regression.

SMILES	EC50
CC1Cn2c(c(C(=O)NCc3ccccc3-c3ccncn3)n(-c3ccc(N4CCO[C@H](C(F)(F)F)C4)cc3)c2=O)CN1C(=O)c1ccc(Br)c(C(F)(F)F)c1 (mixture of isomers) [Compound 52a, rac-(6S)-7-[4-bromo-3-(trifluoromethyl)benzoyl]-6-methyl-3-oxo-N-[(2-pyrimidin-4-ylphenyl)methyl]-2-[4-[(2S)-2-(trifluoromethyl)morpholin-4-yl]phenyl]-6,8-dihydro-5H-imidazo[1,5-a]pyrazine-1-carboxamide]	0.05 to 0.5 µM
CC1Cn2c(c(C(=O)NCc3ccccc3-c3ccncn3)n(-c3ccc(N4CCO[C@H](C(F)(F)F)C4)cc3)c2=O)CN1C(=O)c1ccc(Br)c(C(F)(F)F)c1 (mixture of isomers) [Compound 52b, rac-(6R)-7-[4-bromo-3-(trifluoromethyl)benzoyl]-6-methyl-3-oxo-N-[(2-pyrimidin-4-ylphenyl)methyl]-2-[4-[(2S)-2-(trifluoromethyl)morpholin-4-yl]phenyl]-6,8-dihydro-5H-imidazo[1,5-a]pyrazine-1-carboxamide]	< 0.05 µM
C[C@H](O)COc1ccc(-n2c(C(=O)NCc3ccccc3-c3cccnn3)c3n(c2=O)C[C@H](C)N(C(=O)c2ccc(Br)c(C(F)(F)F)c2)C3)cc1 (mixture of isomers) [Compound 57b, (6SR)-7-[4-bromo-3-(trifluoromethyl)benzoyl]-2-[4-[(2S)-2-hydroxypropoxy]phenyl]-6-methyl-3-oxo-N-[(2-pyridazin-3-ylphenyl)methyl]-6,8-dihydro-5H-imidazo[1,5-a]pyrazine-1-carboxamide]	0.05 to 0.5 µM
C[C@H](O)COc1ccc(-n2c(C(=O)NCc3ccccc3-c3ccncn3)c3n(c2=O)C[C@@H](C)N(C(=O)c2ccc(Br)c(C(F)(F)F)c2)C3)cc1 (mixture of isomers) [Compound 58a, (6RS)-7-[4-bromo-3-(trifluoromethyl)benzoyl]-2-[4-[(2S)-2-hydroxypropoxy]phenyl]-6-methyl-3-oxo-N-[(2-pyrimidin-4-ylphenyl)methyl]-6,8-dihydro-5H-imidazo[1,5-a]pyrazine-1-carboxamide]	0.05 to 0.5 µM
C[C@H](O)COc1ccc(-n2c(C(=O)NCc3ccccc3-c3ccncn3)c3n(c2=O)C[C@H](C)N(C(=O)c2ccc(Br)c(C(F)(F)F)c2)C3)cc1 (mixture of isomers) [Compound 58b, (6SR)-7-[4-bromo-3-(trifluoromethyl)benzoyl]-2-[4-[(2S)-2-hydroxypropoxy]phenyl]-6-methyl-3-oxo-N-[(2-pyrimidin-4-ylphenyl)methyl]-6,8-dihydro-5H-imidazo[1,5-a]pyrazine-1-carboxamide]	< 0.05 µM
C[C@@H](O)COc1ccc(-n2c(C(=O)NCc3ccccc3-c3ccccn3)c3n(c2=O)C[C@H](C)N(C(=O)c2ccc(Br)c(C(F)(F)F)c2)C3)cc1 (mixture of isomers) [Compound 60b, (6SR)-7-[4-bromo-3-(trifluoromethyl)benzoyl]-2-[4-[(2R)-2-hydroxypropoxy]phenyl]-6-methyl-3-oxo-N-[[2-(2-pyridyl)phenyl]methyl]-6,8-dihydro-5H-imidazo[1,5-a]pyrazine-1-carboxamide]	< 0.05 µM
C[C@H](O)COc1ccc(-n2c(C(=O)NCc3ccccc3-c3ccccn3)c3n(c2=O)C[C@@H](C)N(C(=O)c2ccc(Br)c(C(F)(F)F)c2)C3)cc1 (mixture of isomers) [Compound 61a, (6RS)-7-[4-bromo-3-(trifluoromethyl)benzoyl]-2-[4-[(2S)-2-hydroxypropoxy]phenyl]-6-methyl-3-oxo-N-[[2-(2-pyridyl)phenyl]methyl]-6,8-dihydro-5H-imidazo[1,5-a]pyrazine-1-carboxamide]	< 0.05 µM
C[C@H](O)COc1ccc(-n2c(C(=O)NCc3ccccc3-c3ccccn3)c3n(c2=O)C[C@H](C)N(C(=O)c2ccc(Br)c(C(F)(F)F)c2)C3)cc1 (mixture of isomers) [Compound 61b, (6SR)-7-[4-bromo-3-(trifluoromethyl)benzoyl]-2-[4-[(2S)-2-hydroxypropoxy]phenyl]-6-methyl-3-oxo-N-[[2-(2-pyridyl)phenyl]methyl]-6,8-dihydro-5H-imidazo[1,5-a]pyrazine-1-carboxamide]	< 0.05 µM
C[C@@H](O)COc1ccc(-n2c(C(=O)NCc3ccccc3-c3ncccn3)c3n(c2=O)C[C@H](C)N(C(=O)c2ccc(Br)c(C(F)(F)F)c2)C3)cc1 (mixture of isomers) [Compound 64b, (6SR)-7-[4-bromo-3-(trifluoromethyl)benzoyl]-2-[4-[(2R)-2-hydroxypropoxy]phenyl]-6-methyl-3-oxo-N-[(2-pyrimidin-2-ylphenyl)methyl]-6,8-dihydro-5H-imidazo[1,5-a]pyrazine-1-carboxamide]	0.05 to 0.5 µM
C[C@@H]1Cn2c(c(C(=O)NCc3ccccc3-c3cccnn3)n(-c3ccc(OC[C@@H](O)C(F)(F)F)cc3)c2=O)CN1C(=O)c1ccc(Br)c(C(F)(F)F)c1 (mixture of isomers) [Compound 66a, (6RS)-7-[4-bromo-3-(trifluoromethyl)benzoyl]-6-methyl-3-oxo-N-[(2-pyridazin-3-ylphenyl)methyl]-2-[4-[(2R)-3,3,3-trifluoro-2-hydroxy-propoxy]phenyl]-6,8-dihydro-5H-imidazo[1,5-a]pyrazine-1-carboxamide]	0.05 to 0.5 µM
C[C@H]1Cn2c(c(C(=O)NCc3ccccc3-c3cccnn3)n(-c3ccc(OC[C@@H](O)C(F)(F)F)cc3)c2=O)CN1C(=O)c1ccc(Br)c(C(F)(F)F)c1 (mixture of isomers) [Compound 66b, (6SR)-7-[4-bromo-3-(trifluoromethyl)benzoyl]-6-methyl-3-oxo-N-[(2-pyridazin-3-ylphenyl)methyl]-2-[4-[(2R)-3,3,3-trifluoro-2-hydroxy-propoxy]phenyl]-6,8-dihydro-5H-imidazo[1,5-a]pyrazine-1-carboxamide]	0.05 to 0.5 µM
C[C@@H]1Cn2c(c(C(=O)NCc3ccccc3-c3cccnn3)n(-c3ccc(OC[C@H](O)C(F)(F)F)cc3)c2=O)CN1C(=O)c1ccc(Br)c(C(F)(F)F)c1 (mixture of isomers) [Compound 67a, (6RS)-7-[4-bromo-3-(trifluoromethyl)benzoyl]-6-methyl-3-oxo-N-[(2-pyridazin-3-ylphenyl)methyl]-2-[4-[(2S)-3,3,3-trifluoro-2-hydroxy-propoxy]phenyl]-6,8-dihydro-5H-imidazo[1,5-a]pyrazine-1-carboxamide]	0.05 to 0.5 µM
C[C@H]1Cn2c(c(C(=O)NCc3ccccc3-c3cccnn3)n(-c3ccc(OC[C@H](O)C(F)(F)F)cc3)c2=O)CN1C(=O)c1ccc(Br)c(C(F)(F)F)c1 (mixture of isomers) [Compound 67b, (6SR)-7-[4-bromo-3-(trifluoromethyl)benzoyl]-6-methyl-3-oxo-N-[(2-pyridazin-3-ylphenyl)methyl]-2-[4-[(2S)-3,3,3-trifluoro-2-hydroxy-propoxy]phenyl]-6,8-dihydro-5H-imidazo[1,5-a]pyrazine-1-carboxamide]	< 0.05 µM
C[C@H]1Cn2c(c(C(=O)NCc3ccccc3-c3ccccn3)n(-c3ccc(OC[C@@H](O)C(F)(F)F)cc3)c2=O)CN1C(=O)c1ccc(Br)c(C(F)(F)F)c1 (mixture of isomers) [Compound 68b, (6SR)-7-[4-bromo-3-(trifluoromethyl)benzoyl]-6-methyl-3-oxo-N-[[2-(2-pyridyl)phenyl]methyl]-2-[4-[(2R)-3,3,3-trifluoro-2-hydroxy-propoxy]phenyl]-6,8-dihydro-5H-imidazo[1,5-a]pyrazine-1-carboxamide]	< 0.05 µM
C[C@H]1Cn2c(c(C(=O)NCc3ccccc3-c3ccccn3)n(-c3ccc(OC[C@H](O)C(F)(F)F)cc3)c2=O)CN1C(=O)c1ccc(Br)c(C(F)(F)F)c1 (mixture of isomers) [Compound 69b, (6SR)-7-[4-bromo-3-(trifluoromethyl)benzoyl]-6-methyl-3-oxo-N-[[2-(2-pyridyl)phenyl]methyl]-2-[4-[(2S)-3,3,3-trifluoro-2-hydroxy-propoxy]phenyl]-6,8-dihydro-5H-imidazo[1,5-a]pyrazine-1-carboxamide]	0.05 to 0.5 µM
